From patent publication US9302991B2, “Arylamide derivatives as TTX-S blockers” (RaQualia Pharma Inc., priority 2010, dated 2016)

These compounds were tested against T1, human Nav1.7 channels (Homo sapiens, UniProt Q15858) (assay: FRET assay, human Nav1.7 (EFS on FDSS)). Settings: CHO cells expressing human Nav1.7, read-out: IC50 against Nav1.7.
T1 construct: expressed in transfected cells; host or cells: CHO
Type: cell-based
Procedure, shortened: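 CHO cells stably expressing the channel, loaded with CC2-DMPE (10 µM) then DiSBAC2(3) (15 µM) plus VABSC-1, in HEPES-buffered saline pH 7.4 at room temperature. Electrical field stimulation on FDSS; FRET ratio at 440 nm fitted for IC50.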

T1 sequence (Q15858 whole entry): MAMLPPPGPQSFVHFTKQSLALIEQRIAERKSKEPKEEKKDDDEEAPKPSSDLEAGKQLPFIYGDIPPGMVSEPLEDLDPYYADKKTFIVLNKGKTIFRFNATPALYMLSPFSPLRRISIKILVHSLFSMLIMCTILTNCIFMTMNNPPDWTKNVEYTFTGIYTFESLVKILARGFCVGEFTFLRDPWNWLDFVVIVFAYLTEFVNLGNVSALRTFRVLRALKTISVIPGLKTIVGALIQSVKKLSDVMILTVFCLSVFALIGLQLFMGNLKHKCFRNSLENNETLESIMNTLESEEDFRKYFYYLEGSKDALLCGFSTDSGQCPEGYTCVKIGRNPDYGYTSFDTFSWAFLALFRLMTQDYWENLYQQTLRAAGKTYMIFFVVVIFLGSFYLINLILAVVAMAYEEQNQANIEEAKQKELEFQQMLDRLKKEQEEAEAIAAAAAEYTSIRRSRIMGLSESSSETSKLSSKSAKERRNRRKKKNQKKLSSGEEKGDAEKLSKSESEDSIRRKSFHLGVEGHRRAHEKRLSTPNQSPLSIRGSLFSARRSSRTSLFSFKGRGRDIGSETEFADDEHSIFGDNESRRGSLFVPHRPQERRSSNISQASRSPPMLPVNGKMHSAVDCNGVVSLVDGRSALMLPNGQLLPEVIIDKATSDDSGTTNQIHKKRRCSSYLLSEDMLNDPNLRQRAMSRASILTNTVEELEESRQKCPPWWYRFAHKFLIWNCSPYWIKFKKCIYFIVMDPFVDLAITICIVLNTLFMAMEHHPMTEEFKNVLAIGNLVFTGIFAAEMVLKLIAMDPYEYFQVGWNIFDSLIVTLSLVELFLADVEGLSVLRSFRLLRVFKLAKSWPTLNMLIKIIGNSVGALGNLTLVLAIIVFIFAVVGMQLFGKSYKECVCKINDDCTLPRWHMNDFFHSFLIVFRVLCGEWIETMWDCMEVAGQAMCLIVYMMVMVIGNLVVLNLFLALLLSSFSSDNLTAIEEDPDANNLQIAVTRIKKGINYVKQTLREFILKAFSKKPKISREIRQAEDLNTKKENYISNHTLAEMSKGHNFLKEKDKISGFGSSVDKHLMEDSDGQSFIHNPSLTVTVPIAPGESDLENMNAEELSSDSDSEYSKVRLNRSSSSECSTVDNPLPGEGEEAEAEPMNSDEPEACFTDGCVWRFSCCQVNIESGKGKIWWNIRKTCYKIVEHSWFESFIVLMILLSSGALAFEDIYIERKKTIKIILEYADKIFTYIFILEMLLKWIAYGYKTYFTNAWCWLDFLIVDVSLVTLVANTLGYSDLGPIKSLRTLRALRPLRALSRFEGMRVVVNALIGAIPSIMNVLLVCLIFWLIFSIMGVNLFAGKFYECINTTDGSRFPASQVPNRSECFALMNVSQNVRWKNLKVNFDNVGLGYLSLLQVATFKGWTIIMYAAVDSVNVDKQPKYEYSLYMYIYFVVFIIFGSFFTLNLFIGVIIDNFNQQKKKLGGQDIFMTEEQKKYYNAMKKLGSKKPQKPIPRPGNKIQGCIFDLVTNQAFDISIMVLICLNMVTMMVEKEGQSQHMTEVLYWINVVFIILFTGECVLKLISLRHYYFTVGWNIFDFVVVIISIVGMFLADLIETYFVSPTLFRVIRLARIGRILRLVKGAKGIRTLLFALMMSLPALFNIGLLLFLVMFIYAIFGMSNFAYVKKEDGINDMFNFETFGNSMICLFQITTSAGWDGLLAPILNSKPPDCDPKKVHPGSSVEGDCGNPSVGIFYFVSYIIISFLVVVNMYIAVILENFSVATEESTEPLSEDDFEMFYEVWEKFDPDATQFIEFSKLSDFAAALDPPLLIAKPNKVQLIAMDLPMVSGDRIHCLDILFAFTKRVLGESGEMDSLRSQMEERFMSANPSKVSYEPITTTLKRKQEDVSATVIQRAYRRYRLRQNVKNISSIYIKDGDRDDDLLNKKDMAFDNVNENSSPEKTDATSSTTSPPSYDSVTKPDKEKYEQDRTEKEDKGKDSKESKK

IC50, < 1 µM:
CC(=O)Nc1cc(C(=O)NC(C)c2cnc(OCC(F)(F)F)c(Cl)c2)ccn1 (single isomer, unassigned) [Example 52, 2-acetamido-N-(1-(5-chloro-6-(2,2,2-trifluoroethoxy)pyridin-3-yl)ethyl)isonicotinamide]
CC(NC(=O)c1ccnc(NC(=O)C2CCC2)n1)c1cnc(OCC(F)(F)F)c(Cl)c1 (single isomer, unassigned) [Example 213, N-(1-(5-chloro-6-(2,2,2-trifluoroethoxy)pyridin-3-yl)ethyl)-2-(cyclobutanecarboxamido)pyrimidine-4-carboxamide]
CC(NC(=O)c1ccnc(NC(=O)C2CC2)c1)c1ccc(OCCC(F)(F)F)nc1 (single isomer, unassigned) [Example 116, 2-(cyclopropanecarboxamido)-N-(1-(6-(3,3,3-trifluoropropoxy)pyridin-3-yl)ethyl)isonicotinamide]
CCC(=O)Nc1cc(C(=O)NCc2ccc(OCC(F)(F)F)nc2C)cc(C)n1 [Example 168, 2-methyl-N-((2-methyl-6-(2,2,2-trifluoroethoxy)pyridin-3-yl)methyl)-6-propionamidoisonicotinamide]
Cc1cc(C(=O)NCc2cccc(C(F)(F)F)c2)cc(NC(=O)C2CC2)n1 [Example 852, 2-(cyclopropanecarboxamido)-6-methyl-N-(3-(trifluoromethyl)benzyl)isonicotinamide]
Cc1cc(C(=O)NCc2cnc(OCC(F)(F)F)c(Cl)c2)nc(NC(=O)C2CC2)n1 [Example 1147, N-((5-chloro-6(2,2,2-trifluoroethoxy)pyridin-3-yl)methyl)-2-(cyclopropanecarboxamido)-6-methylpyrimidine-4-carboxamide]
CC(=O)Nc1cc(C(=O)N[C@H](C)c2cccc(C(F)(F)F)c2)ccn1 (single isomer, unassigned) [Example 7]
CCC(=O)Nc1cc(C(=O)NC(C)c2cnc(OCC(F)(F)F)c(F)c2)ccn1 (single isomer, unassigned) [Example 74, N-(1-(5-fluoro-6-(2,2,2-trifluoroethoxy)pyridin-3-yl)ethyl)-2-propionamidoisonicotinamide]
CC(=O)Nc1cc(C(=O)NC(C)c2cnc(OCC(F)F)c(C)c2)ccn1 (single isomer, unassigned) [Example 551, 2-acetamido-N-(1-(6-(2,2-difluoroethoxy)-5-methylpyridin-3-yl)ethyl)isonicotinamide]
Cc1cc(C(=O)NCc2ccc(OCC(F)F)cc2C)cc(NC(=O)C(C)C)n1 [Example 1008, N-(4-(2,2-difluoroethoxy)-2-methylbenzyl)-2-isobutyramido-6-methylisonicotinamide]
CC(C)C(=O)Nc1nccc(C(=O)NCc2cnc(OCC(F)(F)F)c(Cl)c2)n1 [Example 412, N-((5-chloro-6-(2,2,2-trifluoroethoxy)pyridin-3-yl)methyl)-2-isobutyramidopyrimidine-4-carboxamide]
CC(=O)Nc1cc(C(=O)NCc2ccc(O[C@H](C)C(F)(F)F)nc2)cc(C)n1 (single isomer, unassigned) [Example 320]
Cc1cc(C(C)NC(=O)c2ccnc(NC(=O)C(C)C)c2)ccc1OCC(F)F (single isomer, unassigned) [Example 862, N-(1-(4-(2,2-difluoroethoxy)-3-methylphenyl)ethyl)-2-isobutyramidoisonicotinamide]
CC(NC(=O)c1ccnc(NC(=O)C2CC2)c1)c1ccc(OCC(C)(F)F)nc1 (single isomer, unassigned) [Example 782, 2-(cyclopropanecarboxamido)-N-(1-(6-(2,2-difluoropropoxy)pyridin-3-yl)ethyl)isonicotinamide]
